The NIST ThermoML archive (doi:10.1021/je800110r)

Conditions: 313.14 K, Liquid, Vibrating tube method

CCCCCCCCCC [decane]
Conditions | mass density [kg/m3]
12060 kPa | 724.5
12090 kPa | 724.6
12118 kPa | 724.7
12149 kPa | 724.5
12173 kPa | 724.7
12197 kPa | 724.7
12233 kPa | 724.6
12257 kPa | 724.7
12287 kPa | 724.9
12324 kPa | 724.8
12341 kPa | 724.8
12365 kPa | 724.9
12382 kPa | 724.9
12406 kPa | 724.9
12434 kPa | 724.8
12459 kPa | 724.9
12483 kPa | 724.9
12501 kPa | 724.9
12523 kPa | 725
12552 kPa | 725
12574 kPa | 725
12596 kPa | 724.9
12624 kPa | 724.9
12650 kPa | 725
12672 kPa | 725.1
12695 kPa | 725.2
12721 kPa | 725.1
12751 kPa | 725.1
12774 kPa | 725.1
12807 kPa | 725.3
12834 kPa | 725.2
12857 kPa | 725.2
12882 kPa | 725.3
12901 kPa | 725.2
12923 kPa | 725.3
12948 kPa | 725.2
12973 kPa | 725.3
12992 kPa | 725.3
13015 kPa | 725.3
13037 kPa | 725.5
13059 kPa | 725.3
13081 kPa | 725.3
13107 kPa | 725.5
13127 kPa | 725.5
13151 kPa | 725.5
13171 kPa | 725.4
13187 kPa | 725.6
13210 kPa | 725.5
13230 kPa | 725.5
13253 kPa | 725.4
13276 kPa | 725.5
13309 kPa | 725.5
13333 kPa | 725.4
13357 kPa | 725.5
13384 kPa | 725.7
13405 kPa | 725.6
13434 kPa | 725.7
13451 kPa | 725.8
13475 kPa | 725.6
13499 kPa | 725.8
13520 kPa | 725.7
13538 kPa | 725.7
13562 kPa | 725.7
13583 kPa | 725.7
13607 kPa | 725.8
13636 kPa | 725.8
13654 kPa | 725.8
13682 kPa | 726
13714 kPa | 725.9
13743 kPa | 725.9
13768 kPa | 725.9
13797 kPa | 725.9
13830 kPa | 725.9
13848 kPa | 726
13878 kPa | 726
13900 kPa | 726
13932 kPa | 726
13970 kPa | 726.1
13987 kPa | 726.1
14008 kPa | 726.2
14029 kPa | 726.1
14050 kPa | 726.2
14071 kPa | 726.1
14091 kPa | 726.2
14119 kPa | 726.1
14140 kPa | 726.1
14168 kPa | 726.2
14196 kPa | 726.3
14224 kPa | 726.2
14253 kPa | 726.3
14277 kPa | 726.4
14302 kPa | 726.3
14328 kPa | 726.3
14353 kPa | 726.4
14371 kPa | 726.3
14405 kPa | 726.4
14426 kPa | 726.3
14449 kPa | 726.4
14485 kPa | 726.5
14511 kPa | 726.5
14540 kPa | 726.5
14570 kPa | 726.5
14600 kPa | 726.4
14630 kPa | 726.5
14663 kPa | 726.6
14693 kPa | 726.7
14719 kPa | 726.7
14750 kPa | 726.6
14780 kPa | 726.7
14811 kPa | 726.8
14830 kPa | 726.7
14861 kPa | 726.7
14892 kPa | 726.8
14919 kPa | 726.8
14944 kPa | 726.8
14964 kPa | 726.8
14984 kPa | 726.8
15008 kPa | 726.8
15036 kPa | 726.9
15068 kPa | 726.9
15100 kPa | 727
15125 kPa | 727
15154 kPa | 726.9
15190 kPa | 727
15219 kPa | 727
15248 kPa | 727
15273 kPa | 727.1
15314 kPa | 727.1
15343 kPa | 727.2
15372 kPa | 727.2
15397 kPa | 727
15423 kPa | 727.1
15441 kPa | 727.2
15467 kPa | 727.3
15485 kPa | 727.2
15504 kPa | 727.2
15526 kPa | 727.2
